Usually pIC50 stands for the IC50 on a negative log10 scale, so that one unit is a factor of ten. As usually defined, the IC50 is the concentration at which inhibition is half-maximal.

This note sets out measurements from article PMC6326523, “A high-throughput screen to identify novel small molecule inhibitors of the Werner Syndrome Helicase-Nuclease (WRN)” (PLoS ONE, 2019).

The test system of one experiment is HeLa 1.2.11 cells. The experiment is described as follows: HeLa cell proliferation assay (WST-1). Type of experiment: cell-based, human. The settings on record: 50 μM, 3-day time course. On the procedure: WRN inhibitors were diluted in DMSO to a concentration 100-fold higher than their final concentrations. U2-OS cells in culture were counted, spun down and resuspended to 35,000 cells/mL in DMEM with 10% FBS and Pen/Strep antibiotic. For each cell condition, 15 μL of DMSO or inhibitor was added to 1.5 ml of U2-OS cells in DMEM or DMEM alone. One hundred μL of each cell condition was plated in triplicate on each of four 96-well plates representing days 0–3. Ten μL of WST-1 cell proliferation reagent (Roche) was added to the day 0 plate and readings were taken 2 hr later using a plate reader set to 450 nm. WST-1 cell proliferation reagent was added to plates on days 1–3 and readings were taken after 2 hr incubation. Percent cell proliferation was normalized to cells in the presence of DMSO with the background OD450 of DMEM with each drug subtracted out. […]
Fig 9 Effects of WRN helicase inhibitors on cancer cell proliferation. (A) Cell proliferation of HeLa 1.2.11 cells treated with 50 μM NCGC00029283-03, NCGC00063279-03, NCGC00357377-01 and NSC 617145 (positive control) or vehicle (DMSO) on Day 0 and Day 3 as measured using the WST-1 cell proliferation reagent. […]

For experiment [1], the target named is T1, GST-WRN500-946 helicase fragment (Homo sapiens, UniProt Q14191).
T1 construct: made in house
The experiment is described as follows: Radiometric helicase assay with GST-WRN500-946 fragment (LOPAC hit validation). The settings on record: GST-WRN500-946 20 nM; FORKR 0.5 nM; increasing concentrations. Type of experiment: biochemical.

In experiment [2] the target is T2, full-length WRN helicase (Homo sapiens, UniProt Q14191).
T2 construct: Full length recombinant WRN [18], BLM [19], and FANCJ [20] proteins were purified from insect cells; made in house; host or cells: insect cells
Kind of experiment: Radiometric helicase inhibitor assay, full-length WRN unwinding of FORKR DNA substrate.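 On all read-outs here: WRN preincubated with compound 15 min at room temperature, then unwinding run 15 min at 37 °C with 2 mM ATP, relative to WRN unwinding without compound (100%).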 The experiment is classed as biochemical. The settings on record: full-length WRN 1 nM, FORKR 0.5 nM; for remaining activity at 50 µM: 50 μM compound, read-out: % Control WRN Helicase Activity; for pIC50: radiometric assay, compound 0-100 μM, read-out: IC50.
Description: Fifteen μL of reaction buffer was added to a microcentrifuge tube followed by the addition of 1 μL of selected compounds (0.5–100 μM final concentration) or DMSO. One μL of WRN (full length), RECQ1, FANCJ, BLM or control was added to each reaction and incubated at room temperature for 15 min. Three μL of substrate (0.5 nM FORKR and 2 mM ATP final concentrations) were added to all reactions which were incubated at 37°C for 15 min. Reactions were stopped with the addition of 20 μL of 2X STOP dye containing EDTA, glycerol, bromphenol blue and xylene cyanol. Samples were electrophoresed for 1.5 hr at 200 V on a 12% non-denaturing PAGE gel in 1X TBE Buffer.
The compounds were tested at a single concentration of 50 μM in the radiometric helicase assay with full-length recombinant WRN protein (1 nM) and the FORKR DNA substrate (0.5 nM) as described in the Materials and Methods section.
For each compound, we performed titrations over a wide range of concentrations with a fixed concentration of full-length WRN protein (1 nM), and quantitated unwinding as a percentage of full-length WRN unwinding of the FORKR DNA substrate (0.5 nM) in the absence of compound (Fig 6A and 6B, S3 Fig). […] In addition to determining an IC50 value for each compound, we also conducted helicase assays to determine the reversibility of inhibition by each compound tested. […] The reaction was diluted 100-fold with the addition of DNA substrate (0.5 nM final concentration) and ATP (2 mM final concentration) and unwinding was measured (Fig 7A–7D, S4 Fig). Inhibition was either classified as reversible, partially reversible, minimally reversible, or irreversible based on the ability of helicase activity to recover after dilution of the compound 100-fold.

Experiment [3] addresses T2, full-length WRN helicase. Kind of experiment: Radiometric helicase inhibitor reversibility assay (100-fold dilution). Type of experiment: biochemical. On the set-up: key to Reversibility: (-) = irreversible; (+) = minimally reversible; (++) = partially reversible; (+++) = reversible. The settings on record: WRN 100 nM preincubated at 10-fold IC50, diluted 100-fold; unwinding 0-16 min. Here is the method:
WRN (full length, 100 nM concentration) was incubated with each small molecule inhibitor at a concentration 10-fold higher than the IC50 for that inhibitor, in a 10 μL reaction at room temperature. 1.5 μL of this reaction was added to 148.5 μL of reaction salts with 2 mM ATP, 0.5 nM FORKR reducing the full length WRN concentration to 1 nM and the drug concentration to 10-fold less than its IC50. Reactions were placed at 37°C and 20 μL of reaction were removed at specific intervals (0–16 min) and quenched with 20 μL of 2X STOP dye containing EDTA, glycerol, bromphenol blue and xylene cyanol. Samples were electrophoresed for 1.5 hr at 200 V on a 12% non-denaturing PAGE gel in 1X TBE Buffer.
Eighteen compounds were selected based on potency of inhibition in both the screening and radiometric assays, and exclusion of compounds with undesired chemical features. For each compound, we performed titrations over a wide range of concentrations with a fixed concentration of full-length WRN protein (1 nM), and quantitated unwinding as a percentage of full-length WRN unwinding of the FORKR DNA substrate (0.5 nM) in the absence of compound (Fig 6A and 6B, S3 Fig). […] In addition to determining an IC50 value for each compound, we also conducted helicase assays to determine the reversibility of inhibition by each compound tested. Details of the assay can be found in the Materials and Methods section, but briefly 100 nM WRN was incubated with each compound at a concentration 10-fold higher than its IC50 value. The reaction was diluted 100-fold with the addition of DNA substrate (0.5 nM final concentration) and ATP (2 mM final concentration) and unwinding was measured (Fig 7A–7D, S4 Fig). Inhibition was either classified as reversible, partially reversible, minimally reversible, or irreversible based on the ability of helicase activity to recover after dilution of the compound 100-fold. Table 2 summarizes the IC50 values and reversibility for each compound and includes IC50 values obtained from the screens for comparison.

In experiment [4] the target is T3, GST-WRN500-946 helicase domain fragment (Homo sapiens, UniProt Q14191).
T3 construct: made in house; host or cells: insect cells
Kind of experiment: High-throughput fluorometric helicase screen, PubChem AID 651768. The experiment is classed as biochemical. The settings on record: initial qHTS; 20 nM GST-WRN500-946; 100 nM FORKF; NA = Not Active; read-out: IC50 (μM) Assay ID 651768. On the procedure: (§1) The structures of the members of this collection are available in the PubChem portal https://pubchem.ncbi.nlm.nih.gov/. For both the 350,000 small molecule collection and the LOPAC^1280 screens, 3 μL of GST-WRN500-946 or reaction buffer only were dispensed using a solenoid-valve nanoliter dispenser into a black 1536-well plate (Greiner). Twenty three nL of each serially diluted compound (0.08–50 μM for the LOPAC screen and 0.003–114 μM for the larger library screen) or control were added to each well using a Kalypsys pintool equipped with a 1536-pin array. Plates were incubated at room temperature for 15 min, followed by initiation of the reactions via the addition of 1 μL of substrate (100 nM FORKF and 2 mM ATP final concentrations). Plates were transferred to a ViewLux high-throughput CCD imager and fluorescence was measured in kinetic mode using an excitation filter of 525 nm and emission filter of 598 nm.
(§2) Zʹ factor, a measure for assay quality control was calculated using the formula Z′ = 1−(3σS^++3σS^−)∕|μS^+−μS^−| as described previously. In this formula, 3σS^+ represents 3 standard deviations from the mean of positive signals while 3σS^− represents 3 standard deviations from the mean of negative signals. μS^+ and μS^− represent the mean of positive signals and negative signals respectively. Percent activity was derived using in-house software (http://tripod.nih.gov/curvefit/). Dose-response curves were classified as described previously.
(§3) A collection of approximately 350,000 compounds is available for screening which has been assembled from multiple sources to provide diverse chemical scaffolds with known purity, identity and solubility. To perform the high-throughput screen of these compounds, we needed to produce approximately 50 milligrams of recombinant WRN helicase fragment. To accomplish this, we cloned the helicase domain fragment into several plasmids for either insect cell or bacterial expression to optimize expression and yield. We selected expression plasmids for insect cell expression with either a GST or MBP tag (image A in S1 Fig) and purified the protein (image B in S1 Fig). The GST-WRN500-946 fragment isolated from insect cells was used in the high throughput screen with the conditions described in Fig 2C (20 nM GST-WRN500-946, 100 nM FORKF DNA substrate) and a summary of the results can be found on PubChem (National Center for Biotechnology Information. PubChem BioAssay Database; Assay Identifier (AID) = 651768, https://pubchem.ncbi.nlm.nih.gov/bioassay/651768). […] To verify the active compounds, approximately 600 hit molecules were retested in a confirmatory screen also found on PubChem (National Center for Biotechnology Information. PubChem AID = 720497, https://pubchem.ncbi.nlm.nih.gov/bioassay/720497). Of these, a little less than four hundred compounds were confirmed as active compounds.
On the technique in general: qHTS replaces the single test concentration by a dilution series.

Experiment [5] concerns the target T3, GST-WRN500-946 helicase domain fragment. The experiment is described as follows: Confirmatory fluorometric helicase screen, PubChem AID 720497. The settings on record: 20 nM GST-WRN500-946, 100 nM FORKF, NA = Not Active, read-out: IC50 (μM) Assay ID 720497. Type of experiment: biochemical. Here is the method: as §1, §2, §3
For experiment [6], the target named is T4, WRN helicase domain fragment (Homo sapiens, UniProt Q14191).
T4 construct: GST (N); made in house
Kind of experiment: WRN-hel-f2 protocol qHTS confirmatory (15 compound confirmatory assay). Type of experiment: biochemical. The settings on record: NA = Not Active. Here is the method: as §1

pIC50: −log10 of the molar value.

T2 sequence (Q14191 whole entry): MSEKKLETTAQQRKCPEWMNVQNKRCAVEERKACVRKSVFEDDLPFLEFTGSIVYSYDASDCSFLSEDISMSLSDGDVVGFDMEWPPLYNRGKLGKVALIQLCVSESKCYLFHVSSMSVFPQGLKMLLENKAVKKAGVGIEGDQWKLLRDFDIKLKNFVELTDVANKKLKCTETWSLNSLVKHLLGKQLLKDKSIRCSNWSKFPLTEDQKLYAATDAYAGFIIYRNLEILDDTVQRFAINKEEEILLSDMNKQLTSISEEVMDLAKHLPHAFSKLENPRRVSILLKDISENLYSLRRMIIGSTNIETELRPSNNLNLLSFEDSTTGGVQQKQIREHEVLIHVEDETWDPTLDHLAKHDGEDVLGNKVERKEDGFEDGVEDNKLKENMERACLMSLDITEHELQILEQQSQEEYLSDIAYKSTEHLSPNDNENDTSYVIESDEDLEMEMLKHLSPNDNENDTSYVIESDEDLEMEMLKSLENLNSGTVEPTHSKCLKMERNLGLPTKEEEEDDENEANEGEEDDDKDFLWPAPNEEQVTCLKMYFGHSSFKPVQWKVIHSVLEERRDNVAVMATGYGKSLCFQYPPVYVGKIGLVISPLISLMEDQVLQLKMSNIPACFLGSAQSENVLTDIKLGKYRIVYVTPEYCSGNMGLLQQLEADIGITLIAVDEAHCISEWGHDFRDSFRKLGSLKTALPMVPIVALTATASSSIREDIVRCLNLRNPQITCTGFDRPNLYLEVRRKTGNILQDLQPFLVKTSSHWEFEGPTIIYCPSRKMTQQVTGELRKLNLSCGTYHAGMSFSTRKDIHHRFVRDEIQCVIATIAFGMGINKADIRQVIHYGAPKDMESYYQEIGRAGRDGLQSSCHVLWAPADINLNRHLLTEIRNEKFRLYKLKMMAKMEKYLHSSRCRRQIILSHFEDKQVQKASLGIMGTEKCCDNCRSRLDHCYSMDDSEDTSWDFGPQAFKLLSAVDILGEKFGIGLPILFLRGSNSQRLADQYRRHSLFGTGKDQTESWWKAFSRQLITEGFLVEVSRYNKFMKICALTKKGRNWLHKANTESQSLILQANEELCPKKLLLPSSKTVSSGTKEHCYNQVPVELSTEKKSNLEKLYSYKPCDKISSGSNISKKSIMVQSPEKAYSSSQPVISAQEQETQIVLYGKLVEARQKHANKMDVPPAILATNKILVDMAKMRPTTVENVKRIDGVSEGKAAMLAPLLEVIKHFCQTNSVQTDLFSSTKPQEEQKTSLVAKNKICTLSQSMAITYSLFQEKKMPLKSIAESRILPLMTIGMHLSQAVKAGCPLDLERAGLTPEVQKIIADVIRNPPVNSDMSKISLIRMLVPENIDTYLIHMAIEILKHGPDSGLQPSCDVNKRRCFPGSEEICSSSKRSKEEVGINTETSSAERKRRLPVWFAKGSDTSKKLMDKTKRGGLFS
T3 sequence (Q14191 500-946): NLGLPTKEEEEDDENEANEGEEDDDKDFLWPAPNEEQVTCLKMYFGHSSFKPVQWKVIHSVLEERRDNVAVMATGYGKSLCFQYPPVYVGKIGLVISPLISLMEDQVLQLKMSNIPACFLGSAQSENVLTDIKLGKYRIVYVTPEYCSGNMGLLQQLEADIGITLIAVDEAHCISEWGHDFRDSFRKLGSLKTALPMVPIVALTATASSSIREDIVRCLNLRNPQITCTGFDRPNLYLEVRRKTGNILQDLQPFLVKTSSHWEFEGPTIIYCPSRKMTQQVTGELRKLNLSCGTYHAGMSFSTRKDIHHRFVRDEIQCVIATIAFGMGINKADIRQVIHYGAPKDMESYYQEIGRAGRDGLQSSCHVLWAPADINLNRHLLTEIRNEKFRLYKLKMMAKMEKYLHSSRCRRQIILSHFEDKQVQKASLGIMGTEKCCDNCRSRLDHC
T4 sequence (Q14191 500-946): as above
T1 sequence (Q14191 500-946): as above

Regarding `CC(C)(CN1C(=O)C(Cl)=C(Cl)C1=O)CN1C(=O)C(Cl)=C(Cl)C1=O` [NSC 617145, reference compound], the “Effect on HeLa 1.2.11 cell proliferation” value in the experiment on HeLa 1.2.11 cells was “very potent inhibition”.

As to `COc1cc2nc(N3CCCN(C)CC3)nc(NC3CCN(Cc4ccccc4)CC3)c2cc1OC` [NCGC00185850-03], the “Inhibition of GST-WRN500-946 unwinding of radiolabeled FORKR” value in experiment [1] is “inhibition”.

As to `N#CSc1ccc2oc(C3=NCCN3)cc2c1` [NCGC00015168-04], in experiment [1], the “Inhibition of GST-WRN500-946 unwinding of radiolabeled FORKR” value is reported as “inhibition”.

As to `COc1ccccc1Nc1ccc2c(O)cc(S(=O)(=O)O)cc2c1` [MLS002608028-02], the remaining activity at 50 µM on full-length WRN helicase [2] came out at 3%. For the same molecule, the pIC50 on full-length WRN helicase [2] is 5.70. Also, the Reversibility entry on full-length WRN helicase [3] is reported as “+++”. Moreover, the IC50 in experiment [4] is 2.7 µM; in experiment [5], 6.1 µM; in experiment [6] it was 0.35 µM.

Regarding `CCOc1ccc(-c2nc(SCC(=O)Nc3ccc(C)c(C)c3)n3[nH]c(=O)cc3n2)cc1` [NCGC00128865-02], the remaining activity at 50 µM at full-length WRN helicase [2] worked out at 20%. On full-length WRN helicase [2], the pIC50 was 5.00. Further, the Reversibility result on full-length WRN helicase [3] is “++”. Besides, the IC50 is 21.1 µM in experiment [4], 15.2 µM in experiment [5] and 1.8 µM in experiment [6].

Consider `O=C(c1cccc(-n2cccc2)c1)N1CCN(S(=O)(=O)c2ccccc2)CC1` [MLS001139594-03], for which the remaining activity at 50 µM at full-length WRN helicase [2] was found to be 4%. Moreover, the pIC50 on full-length WRN helicase [2] is 5.00. The Reversibility entry on full-length WRN helicase [3] was “-”. For the same molecule, the figures for the concentration for half-maximal inhibition (IC50) in experiment [4], in experiment [5] and in experiment [6] were 4.7 µM, 4.3 µM and 0.35 µM, respectively.
